# Laboratory results published in ChEMBL document CHEMBL1201862, “PubChem BioAssay data set” (2004).
# The source made the active and inactive calls.
# Experiments:
# [1] = Vero cell cytotoxicity, dose response, cytotoxicity control for Vif-APOBEC3G degradation inhibitor project, Vero cells (AID 1117358); type: functional; conditions: Human immunodeficiency virus 1, Vero
# [2] = inhibitors of firefly luciferase expression or activity, dose response, H4 neuroglioma cells, luminescence (AID 1990); type: functional, cell-based
# [3] = Luminescence Cell-Based Dose Response HTS to Identify Inhibitors of 5'UTR Stem-Loop Driven Prion Protein mRNA Translation in H4 Neuroglioblastoma Cells. [Related pubchem assays: 1827 (Project Summary), 1813 (Primary HTS)]; type: functional
# [4] = system: HEK293; assay: cells; conditions: Homo sapiens
# [5] = inhibitors of SNCA 5'UTR-driven reporter translation, confirmation, H4 neuroglioma cells, luminescence (AID 1988); type: functional, cell-based
# [6] = system: HEK293; assay: cells; conditions: Homo sapiens; remark: listed apart in the source
# [7] = inhibitors of Vif binding to APOBEC3G peptide, primary screen, biochemical, TR-FRET, GST-Vif 1-94, biotin-A3G peptide, dose response retest (AID 1117319); type: functional;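 also: TR-FRET signal of purified GST-Vif binding a biotinylated A3G peptide; inhibitors lower the FRET signal by blocking Vif and A3G binding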
# [8] = SNU-C1 cell viability reduction, dose response, CellTiter-Glo luminescence (AID 1117323); type: functional, cell-based
# [9] = cytotoxicity toward Colo320 cells – cell-based, CellTiter-Glo luminescence, IC50, dose response (AID 1117334); type: functional; conditions: COLO 320
# [10] = cytotoxicity toward HCT116 cells – cell-based, CellTiter-Glo luminescence, IC50, dose response (AID 1117332); type: functional; conditions: HCT-116
# [11] = HeLa 4N DNA content increase, dose response, cell-based, IC50 (AID 1117351); type: functional
# [12] = HCT116 cell viability decrease, GSK3B pretreatment – CellTiter-Glo, IC50, dose response (AID 1117339); type: functional; conditions: HCT-116
# [13] = HeLa 2N DNA content increase, dose response, cell-based, IC50 (AID 1117349); type: functional
# [14] = Concentration-dependent survival of SW480 colon cancer line, luminescence detection with CellTiter-Glo, half-maximal inhibitory concentration (AID 1117338); type: functional
# [15] = cytotoxicity toward HT-29 cells – cell-based, CellTiter-Glo luminescence, IC50, dose response (AID 1117330); type: functional
# [16] = CellTiter-Glo luminescent dose response of DLD-1 viability loss (AID 1117352); type: functional
# [17] = RKO cell viability reduction, dose response, CellTiter-Glo luminescence (AID 1117322); type: functional
# [18] = biological target: Voltage-gated inwardly rectifying potassium channel KCNH2 (Homo sapiens, UniProt Q12809); assay: hERG protection from proarrhythmic block, potency, dose response, cell-based, thallium flux (AID 2121); type: ADME
# [19] = biological target: T1, Hexokinase (Trypanosoma brucei, UniProt Q38C41); assay: Confirmation assay for inhibitors of Trypanosoma brucei hexokinase 1-Analogue-first series. [Related pubchem assays (depositor defined):AID1430, AID1632, AID2516, AID2560, AID2579, AID2600, AID449725, AID492951]; type: functional
# T1 sequence (Q38C41 whole entry): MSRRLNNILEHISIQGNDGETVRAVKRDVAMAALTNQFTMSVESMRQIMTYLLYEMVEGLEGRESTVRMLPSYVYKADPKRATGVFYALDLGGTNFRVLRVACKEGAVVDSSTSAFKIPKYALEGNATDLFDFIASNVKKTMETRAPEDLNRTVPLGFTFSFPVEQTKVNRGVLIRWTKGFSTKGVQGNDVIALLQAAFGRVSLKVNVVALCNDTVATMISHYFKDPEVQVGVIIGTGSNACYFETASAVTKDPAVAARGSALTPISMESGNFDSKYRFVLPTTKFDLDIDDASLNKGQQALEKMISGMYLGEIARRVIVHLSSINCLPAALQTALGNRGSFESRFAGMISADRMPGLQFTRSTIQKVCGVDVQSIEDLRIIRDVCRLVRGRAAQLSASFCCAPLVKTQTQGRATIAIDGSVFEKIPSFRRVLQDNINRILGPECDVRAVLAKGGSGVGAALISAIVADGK
# [20] = P. falciparum Dd2 growth inhibitors, dose response, SYBR Green, dry powder samples, set 9 (AID 1159568); type: functional, cell-based
# [21] = P. falciparum Dd2 growth inhibitors, dose response, SYBR Green, cherry-picked samples (AID 1159567); type: functional, cell-based
# [22] = HepG2 cell cytotoxicity, dose response, cytotoxicity control, cherry-picked samples (AID 1159577); type: functional, cell-based
# [23] = P. falciparum late gametocyte killing, dose response, luminescence (AID 1117278); type: functional, cell-based;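 also: gametocytes exposed to compound for 24 hours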
# [24] = Jurkat T cell cytotoxicity, dose response, cytotoxicity control for P. falciparum gametocyte viability project, luminescence (AID 1117277); type: functional, cell-based;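 also: potency reflects loss of cellular ATP meaning fewer viable cells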
# Sequence of Voltage-gated inwardly rectifying potassium channel KCNH2 (Q12809 whole entry): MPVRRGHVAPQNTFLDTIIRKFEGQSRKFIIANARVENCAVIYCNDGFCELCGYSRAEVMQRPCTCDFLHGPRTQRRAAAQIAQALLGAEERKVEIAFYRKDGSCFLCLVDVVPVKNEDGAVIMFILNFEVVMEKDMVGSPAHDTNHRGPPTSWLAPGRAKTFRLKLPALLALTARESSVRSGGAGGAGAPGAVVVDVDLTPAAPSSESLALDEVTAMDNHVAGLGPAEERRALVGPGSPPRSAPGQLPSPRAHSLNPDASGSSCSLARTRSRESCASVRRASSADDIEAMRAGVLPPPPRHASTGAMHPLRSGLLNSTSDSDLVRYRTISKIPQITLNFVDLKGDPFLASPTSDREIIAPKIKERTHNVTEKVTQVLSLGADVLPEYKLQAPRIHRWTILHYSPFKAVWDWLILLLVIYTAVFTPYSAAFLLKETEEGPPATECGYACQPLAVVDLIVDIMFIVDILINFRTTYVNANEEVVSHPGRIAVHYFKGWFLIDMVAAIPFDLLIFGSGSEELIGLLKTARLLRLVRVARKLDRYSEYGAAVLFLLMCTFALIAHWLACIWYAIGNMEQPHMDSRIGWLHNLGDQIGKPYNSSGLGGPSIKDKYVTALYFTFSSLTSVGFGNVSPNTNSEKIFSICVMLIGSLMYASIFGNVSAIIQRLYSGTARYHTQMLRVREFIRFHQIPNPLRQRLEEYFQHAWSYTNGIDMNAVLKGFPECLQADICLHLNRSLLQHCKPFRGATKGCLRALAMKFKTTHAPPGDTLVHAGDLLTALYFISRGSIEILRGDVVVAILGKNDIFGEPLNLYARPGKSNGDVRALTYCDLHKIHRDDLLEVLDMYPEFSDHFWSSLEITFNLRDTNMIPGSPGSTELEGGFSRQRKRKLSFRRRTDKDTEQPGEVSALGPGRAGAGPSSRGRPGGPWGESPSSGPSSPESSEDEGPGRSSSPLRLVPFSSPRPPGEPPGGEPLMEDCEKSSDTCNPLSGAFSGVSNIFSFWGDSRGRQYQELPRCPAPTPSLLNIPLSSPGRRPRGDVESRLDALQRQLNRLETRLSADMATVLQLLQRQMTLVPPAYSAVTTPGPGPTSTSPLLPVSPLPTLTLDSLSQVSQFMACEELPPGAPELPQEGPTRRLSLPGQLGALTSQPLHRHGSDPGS
smiles,measurement,setting,value
CC(C)c1nc2sc3c(NCc4ccco4)ncnc3c2c2c1COC(C)(C)C2,CC50,[1],> 40 µM (active)
same,EC50,[2],19.2 µM (active)
same,EC50,[3],> 120 µM (not active)
same,EC50,[4],> 59.6 µM (inactive)
same,EC50,[5],> 120 µM (not active)
same,EC50,[6],> 59.6 µM (inactive)
same,IC50,[7],> 50 µM (active)
Cc1c(C)c2c(c(C)c1O)CCC(C)(COc1ccc(CC3SC(=O)NC3=O)cc1)O2 (centres undefined) [TROGLITAZONE],IC50,[8],> 20 µM (inactive)
same,IC50,[9],9.49 µM (inactive)
same,IC50,[10],1.4 µM (active)
same,IC50,[11],> 10 µM (inactive)
same,IC50,[12],1.3 µM (active)
same,IC50,[13],> 10 µM (inactive)
same,IC50,[14],5.59 µM (inactive)
same,IC50,[15],> 20 µM (inactive)
same,IC50,[16],12.3 µM (inactive)
same,IC50,[17],7.76 µM (inactive)
COc1ccc(C(=O)Nc2ccccc2C(=O)O)cc1Cl,EC50,[18],13 µM (active)
same,IC50,[19],> 25 µM (inactive)
COc1ccc2c3c(n(C)c2c1)[C@@H](CO)N(Cc1ccc2c(c1)OCO2)CC31CN(C(=O)c2ccc3c(c2)OCO3)C1,AC50,[20],1.21 µM (active)
Cc1ccccc1S(=O)(=O)N1CC(=O)N2[C@H](C1)[C@@H](c1ccc(C#CCC3CCCC3)cc1)[C@@H]2CO,AC50,[21],3.64 µM (active)
same,AC50,[22],> 42 µM (inactive)
CC(=O)c1c(C)[nH]c(C(=O)COC(=O)C2CC2)c1C,IC50,[23],> 109 µM (inactive)
same,IC50,[24],> 83.2 µM (inactive)
